# Laboratory results from patent publication US20240228488A1 (TAKEDA PHARMACEUTICAL COMPANY LIMITED, priority 2021, published 2024).
# Legend:
# [1] = molecular target: human activated kallikrein enzyme (Homo sapiens, UniProt P03952); test: Plasma kallikrein inhibition, fluorogenic PFR-AMC substrate, 500 pM activated kallikrein format; format: biochemical; settings: 500 pM activated kallikrein, 300 uM PFR-AMC, 30 min preincubation, 10 min reaction; read-out: Primary Dose Response Assay: Average EC50
# Outline: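 Fluorescence (ex 380/em 460 nm) is read after 10 min of 300 uM PFR-AMC turnover by 500 pM enzyme at RT. Compounds sit with enzyme for 30 min beforehand. Buffer is Tris (pH 7.5) with EDTA, NaCl, PEG-400 and Triton X-100; EC50 values are banded.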
# plasma kallikrein = molecular target: T1, plasma kallikrein (Homo sapiens, UniProt P03952); test: Neat human plasma assay, FXIIa contact pathway-activated, PFR-AMC substrate; format: biochemical; settings: citrated human plasma 78% final, 10 nM human FXIIa, 100 μM PFR-AMC; read-out: Human Plasma Assay: IC90
# T1 construct: from tissue
# Outline: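 Compound inhibition of plasma kallikrein measured as PFR-AMC (100 μM) cleavage rate over 5 min at room temperature in 78% citrated human plasma activated with 10 nM FXIIa (Tris pH 7.5 buffer). IC50/IC90 from 4-parameter fit of rate versus inhibitor concentration.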
# T1 sequence (P03952 391-638 limits assumed): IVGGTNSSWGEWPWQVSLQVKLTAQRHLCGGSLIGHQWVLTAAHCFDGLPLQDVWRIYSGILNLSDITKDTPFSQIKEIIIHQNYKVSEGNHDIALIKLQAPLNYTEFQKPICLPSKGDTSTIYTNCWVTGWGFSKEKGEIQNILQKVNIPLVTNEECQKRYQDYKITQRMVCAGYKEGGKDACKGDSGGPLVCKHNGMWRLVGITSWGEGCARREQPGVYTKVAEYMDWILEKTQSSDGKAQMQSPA
# T1 sequence (P03952 20-390 partner limits assumed): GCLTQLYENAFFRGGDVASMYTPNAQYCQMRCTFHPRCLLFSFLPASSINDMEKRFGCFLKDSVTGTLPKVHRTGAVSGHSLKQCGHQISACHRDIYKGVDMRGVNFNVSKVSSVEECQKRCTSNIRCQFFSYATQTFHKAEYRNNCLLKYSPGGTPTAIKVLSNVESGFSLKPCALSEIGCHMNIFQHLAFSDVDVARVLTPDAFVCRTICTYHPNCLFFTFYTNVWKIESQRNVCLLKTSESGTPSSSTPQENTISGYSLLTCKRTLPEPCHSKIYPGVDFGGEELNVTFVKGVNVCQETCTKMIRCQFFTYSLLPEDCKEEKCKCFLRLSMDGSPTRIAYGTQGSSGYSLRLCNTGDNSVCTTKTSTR
# human activated kallikrein enzyme, sequence (P03952 391-638 limits assumed): as the sequence (P03952 391-638 limits assumed) above
# human activated kallikrein enzyme, sequence (P03952 20-390 partner limits assumed): as the sequence (P03952 20-390 partner limits assumed) above
SMILES,EC50 [1] [nM],IC90 (plasma kallikrein) [nM]
"Cc1cc(OCc2cn3cc(C4CC4)cc(N4CC(=O)N(C)C4=O)c3n2)cc(NC(=O)[C@H]2C[C@@H]2c2nccc(C)n2)n1 [Example 34, (1S,2S)—N-(4-((6-cyclopropyl-8-(3-methyl-2,4-dioxoimidazolidin-1-yl)imidazo[1,2-a]pyridin-2-yl)methoxy)-6-methylpyridin-2-yl)-2-(4-methylpyrimidin-2-yl)cyclopropane-1-carboxamide]",< 1,< 400
"O=C(Nc1cc(NCc2cn3cc(C4CC4)cc(CO)c3n2)ncn1)[C@H]1C[C@@H]1c1cccc(Cl)c1 (racemic) [Example 70, rac-(1S*,2S*)-2-(3-chlorophenyl)-N-(6-(((6-cyclopropyl-8-(hydroxymethyl)imidazo[1,2-α]pyridin-2-yl)methyl)amino)pyrimidin-4-yl)cyclopropane-1-carboxamide]",1 to 10,> 48000
"CN1C(=O)CN(c2cc(C3CC3)cn3cc([C@H]4C[C@H](O)CN4c4cc(NC(=O)[C@H]5C[C@@H]5c5cccc(Cl)c5)ncn4)nc23)C1=O [Example 480, (1S,2S)-2-(3-chlorophenyl)-N-(6-((2R,4S)-2-(6-cyclopropyl-8-(3-methyl-2,4-dioxoimidazolidin-1-yl)imidazo[1,2-a]pyridin-2-yl)-4-hydroxypyrrolidin-1-yl)pyrimidin-4-yl)cyclopropane-1-carboxamide]",1 to 10,< 400
"Cc1ccnc([C@H]2C[C@@H]2C(=O)Nc2cc(OCc3cn4cc(C5CC5)cc(N5CC(=O)N(C)C5=O)c4n3)cnn2)n1 [Example 558, (1S,2S)-N-(5-((6-cyclopropyl-8-(3-methyl-2,4-dioxoimidazolidin-1-yl)imidazo[1,2-a]pyridin-2-yl)methoxy)pyridazin-3-yl)-2-(4-methylpyrimidin-2-yl)cyclopropane-1-carboxamide]",< 1,< 400
"Cc1ccnc([C@H]2C[C@@H]2C(=O)Nc2cc(NCc3cn4cc(C5CC5)cc(N5CC(=O)N(COP(=O)(O)O)C5=O)c4n3)ncn2)n1 [Example 466, (3-(6-cyclopropyl-2-(((6-((1S,2S)-2-(4-methylpyrimidin-2-yl)cyclopropane-1-carboxamido)pyrimidin-4-yl)amino)methyl)imidazo[1,2-a]pyridin-8-yl)-2,5-dioxoimidazolidin-1-yl)methyl dihydrogen phosphate]",< 1,1500 to 10000
"CN1C(=O)CN(c2cc(C3CC3)cn3cc(CNc4cc(NC(=O)[C@H]5C[C@@H]5c5cc(Cl)ccc5C#N)ncn4)nc23)C1=O (racemic) [Example I-170, rac-(1S*,2S*)-2-(5-chloro-2-cyanophenyl)-N-(6-(((6-cyclopropyl-8-(3-methyl-2,4-dioxoimidazolidin-1-yl)imidazo[1,2-a]pyridin-2-yl)methyl)amino)pyrimidin-4-yl)cyclopropane-1-carboxamide]",< 1,1500 to 10000
"CCN1CCN(c2cc(C3CC3)cn3cc(CNc4cc(NC(=O)[C@H]5C[C@@H]5c5nccc(C)n5)ncn4)nc23)CC1 [Example 383, (1S,2S)-N-(6-(((6-cyclopropyl-8-(4-ethylpiperazin-1-yl)imidazo[1,2-a]pyridin-2-yl)methyl)amino)pyrimidin-4-yl)-2-(4-methylpyrimidin-2-yl)cyclopropane-1-carboxamide]",< 1,< 400
"O=C(Nc1cc(NCc2cn3cc(C4CC4)cc(CCO)c3n2)ccn1)[C@H]1C[C@@H]1c1cccc(Cl)c1 [Example 292, (1S,2S)-2-(3-chlorophenyl)-N-(4-(((6-cyclopropyl-8-(2-hydroxyethyl)imidazo[1,2-a]pyridin-2-yl)methyl)amino)pyridin-2-yl)cyclopropane-1-carboxamide]",< 1,1500 to 10000
"Cc1ccnc([C@H]2C[C@@H]2C(=O)Nc2cc(OCc3cn4cc(C5CC5)cc(N5CC(=O)NC5=O)c4n3)ncn2)n1 [Example 32, (1S,2S)—N-(6-((6-cyclopropyl-8-(2,4-dioxoimidazolidin-1-yl)imidazo[1,2-a]pyridin-2-yl)methoxy)pyrimidin-4-yl)-2-(4-methylpyrimidin-2-yl)cyclopropane-1-carboxamide]",< 1,< 400
"O=C(Nc1cc(NCc2cn3cc(C4CC4)cc(N4CCSCC4=O)c3n2)ncn1)[C@H]1C[C@@H]1c1cccc(Cl)c1 [Example I-155, (1S,2S)-2-(3-chlorophenyl)-N-(6-(((6-cyclopropyl-8-(3-oxothiomorpholino)imidazo[1,2-a]pyridin-2-yl)methyl)amino)pyrimidin-4-yl)cyclopropane-1-carboxamide]",< 1,1500 to 10000
"O=C(O)CCc1cc(C2CC2)cn2cc(CNc3ccnc(NC(=O)[C@H]4C[C@@H]4c4cccc(Cl)c4)c3)nc12 [Example 290, 3-(2-(((2-((1S,2S)-2-(3-chlorophenyl)cyclopropane-1-carboxamido)pyridin-4-yl)amino)methyl)-6-cyclopropylimidazo[1,2-a]pyridin-8-yl)propanoic acid]",< 1,1500 to 10000
"Cc1ccnc([C@H]2C[C@@H]2C(=O)Nc2cc(NCc3cn4cc(C5CC5)cc(N5CC(=O)N(C)C5=O)c4n3)ncn2)c1 (racemic) [Example 393, rac-(1S*,2S*)-N-(6-(((6-cyclopropyl-8-(3-methyl-2,4-dioxoimidazolidin-1-yl)imidazo[1,2-a]pyridin-2-yl)methyl)amino)pyrimidin-4-yl)-2-(4-methylpyridin-2-yl)cyclopropane-1-carboxamide]",< 1,400 to 1500
"O=C(Nc1cc(NCc2cn3cc(C4CC4)ccc3n2)ccn1)[C@H]1C[C@@H]1c1cc(Cl)ccc1[N+](=O)[O-] (racemic) [Example I-223, rac-(1S*,2S*)-2-(5-chloro-2-nitrophenyl)-N-(4-(((6-cyclopropylimidazo[1,2-a]pyridin-2-yl)methyl)amino)pyridin-2-yl)cyclopropane-1-carboxamide]",< 1,> 48000
"O=C(O)CN1CCN(c2cc(C3CC3)cn3cc(CNc4ccnc(NC(=O)[C@H]5C[C@@H]5c5cccc(Cl)c5)c4)nc23)CC1 [Example 602, 2-(4-(2-(((2-((1S,2S)-2-(3-chlorophenyl)cyclopropane-1-carboxamido)pyridin-4-yl)amino)methyl)-6-cyclopropylimidazo[1,2-a]pyridin-8-yl)piperazin-1-yl)acetic acid]",< 1,< 400
"O=C(Nc1cc(NCc2cn3cc(C4CC4)cc(N4CCS(=O)(=O)CC4)c3n2)ncn1)[C@H]1C[C@@H]1c1cccc(Cl)c1 [Example I-10, (1S,2S)-2-(3-chlorophenyl)-N-(6-(((6-cyclopropyl-8-(1,1-dioxidothiomorpholino)imidazo[1,2-a]pyridin-2-yl)methyl)amino)pyrimidin-4-yl)cyclopropane-1-carboxamide]",1 to 10,1500 to 10000
"CN1CCN(c2cc(C3CC3)cn3cc(CNc4ccnc(NC(=O)[C@H]5C[C@@H]5c5cccc(Cl)c5)c4)nc23)C(=O)C1 [Example 127, (1S,2S)-2-(3-chlorophenyl)-N-(4-(((6-cyclopropyl-8-(4-methyl-2-oxopiperazin-1-yl)imidazo[1,2-a]pyridin-2-yl)methyl)amino)pyridin-2-yl)cyclopropane-1-carboxamide]",< 1,< 400
"Cc1ccnc([C@H]2C[C@@H]2C(=O)Nc2cc(N[C@H](C)c3cn4cc(C5CC5)cc(N5CC(=O)N(C)C5=O)c4n3)ncn2)n1 (single isomer, unassigned) [Example 451]",< 1,400 to 1500
"O=C(Nc1cc(NCc2cn3cc(C4CC4)cc(N4CCN5CC(O)CC5C4)c3n2)ncn1)[C@H]1C[C@@H]1c1cccc(Cl)c1 (stereo partly drawn) [Example I-196, (1S,2S)-2-(3-chlorophenyl)-N-(6-(((6-cyclopropyl-8-(7-hydroxyhexahydropyrrolo[1,2-a]pyrazin-2(1H)-yl)imidazo[1,2-a]pyridin-2-yl)methyl)amino)pyrimidin-4-yl)cyclopropane-1-carboxamide]",1 to 10,1500 to 10000
"CN1C(=O)CN(c2cc(C3CC3)cn3cc(CN(C)c4cnnc(NC(=O)[C@H]5C[C@@H]5c5cccc(Cl)c5)c4)nc23)C1=O [Example I-641, (1S,2S)-2-(3-chlorophenyl)-N-(5-(((6-cyclopropyl-8-(3-methyl-2,4-dioxoimidazolidin-1-yl)imidazo[1,2-a]pyridin-2-yl)methyl)(methyl)amino)pyridazin-3-yl)cyclopropane-1-carboxamide]",< 1,400 to 1500
"O=C(Nc1cc(NCc2cn3cc(C4CC4)ccc3n2)ccn1)[C@@]1(F)C[C@@H]1c1cccc(Cl)c1 (racemic) [Example I-217, rac-(1S*,2S*)-2-(3-chlorophenyl)-N-(4-(((6-cyclopropylimidazo[1,2-a]pyridin-2-yl)methyl)amino)pyridin-2-yl)-1-fluorocyclopropane-1-carboxamide]",1 to 10,10000 to 48000
"Cc1ccc(F)c([C@H]2C[C@@H]2C(=O)Nc2cc(NCc3cn4cc(C5CC5)cc(N5CC(=O)N(C)C5=O)c4n3)ncn2)n1 (racemic) [Example 502, rac-(1S*,2S*)-N-(6-(((6-cyclopropyl-8-(3-methyl-2,4-dioxoimidazolidin-1-yl)imidazo[1,2-a]pyridin-2-yl)methyl)amino)pyrimidin-4-yl)-2-(3-fluoro-6-methylpyridin-2-yl)cyclopropane-1-carboxamide]",< 1,400 to 1500
